The results in this text go back to patent US20260152487A1 (Sitryx Therapeutics Limited, priority 2021, published 2026).

For one test, the target named is T1, recombinant human PKLR (Homo sapiens, UniProt P30613).
T1 construct: His (N); purchased R&D Systems
The test can be described thus: Human PKLR activation assay (Kinase-Glo Plus luminescent detection of generated ATP). The format is biochemical. As to conditions: for EC50: activation of recombinant human PKLR, 4-parameter logistic fit, read-out: hPKLR EC50; for Emax: read-out: hPKLR Emax (%). The procedure: Compound activation of recombinant human PKLR pyruvate kinase activity was determined by biochemical assay. N-terminal His-tagged enzyme was sourced from R&D Systems and its substrates phosphoenolpyruvate (PEP) and ADP from Sigma-Aldrich and 2Bscientific Ltd, respectively. The Kinase-Glo® Plus luminescence assay was from Promega. All other reagents were from Sigma-Aldrich. Test Compounds were prepared as 10 mM DMSO stocks and dilution series prepared in DMSO for direct dilution into Assay Buffer comprising 50 mM imidazole, 50 mM KCl, 7 mM MgCl2, 0.01% Tween20, 0.05% BSA (pH 7.2).
Human PKLR was diluted into Assay Buffer to a final concentration of 5 pM. Enzyme-Assay Buffer mix was dispensed into 384-well shallow-well white-walled plates and Test Compounds added by acoustic dispense (Echo®, Labcyte Inc).
After 60 minutes' incubation on an orbital shaker (300 rpm, 26° C.), enzyme activity was quantified by the luminescent detection of generated ATP. Kinase-Glo® Plus reagent was added to each well and the plates incubated for a further 15 minutes on an orbital shaker in the dark (300 rpm, 26° C.) before luminescence measurement on a plate reader (PHERAstar® FSX, BMG Labtech).
Percentage activation was calculated by normalising […] signals to plate LOW (DMSO vehicle) and HIGH (5 μM TEPP-46) controls. EC50 and Emax values were determined from 4-parameter logistic fits of compound concentration-response curves.
For orientation: Kinase-Glo measures the ATP left after a reaction by luminescence.

For the next test, the target named is T2, recombinant human PKM2 (Homo sapiens, UniProt P14618).
T2 construct: His (N); purchased R&D Systems
The test can be described thus: Human PKM2 activation assay (Kinase-Glo Plus luminescent detection of generated ATP). The test is classed as biochemical. The following applies: for Emax / hPKM2 Emax: percentage activation normalised to DMSO vehicle (LOW) and 5 μM TEPP-46 (HIGH); for Emax: read-out: hPKM2 Emax; for EC50: recombinant human PKM2 activation, 4-parameter logistic fit, read-out: hPKM2 EC50. The method, boiled down:
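Luminescent ATP detection (Kinase-Glo Plus, 15 min, 26 °C) followed a 60 min, 26 °C shaken reaction of compound with […] His-tagged human PKM2, PEP and ADP in imidazole/KCl/MgCl2 buffer with Tween20 and BSA, pH 7.2.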

Setting [1] is: percentage activation normalised to DMSO vehicle (LOW) and 5 μM TEPP-46 (HIGH) controls.

T1 sequence (P30613 whole entry): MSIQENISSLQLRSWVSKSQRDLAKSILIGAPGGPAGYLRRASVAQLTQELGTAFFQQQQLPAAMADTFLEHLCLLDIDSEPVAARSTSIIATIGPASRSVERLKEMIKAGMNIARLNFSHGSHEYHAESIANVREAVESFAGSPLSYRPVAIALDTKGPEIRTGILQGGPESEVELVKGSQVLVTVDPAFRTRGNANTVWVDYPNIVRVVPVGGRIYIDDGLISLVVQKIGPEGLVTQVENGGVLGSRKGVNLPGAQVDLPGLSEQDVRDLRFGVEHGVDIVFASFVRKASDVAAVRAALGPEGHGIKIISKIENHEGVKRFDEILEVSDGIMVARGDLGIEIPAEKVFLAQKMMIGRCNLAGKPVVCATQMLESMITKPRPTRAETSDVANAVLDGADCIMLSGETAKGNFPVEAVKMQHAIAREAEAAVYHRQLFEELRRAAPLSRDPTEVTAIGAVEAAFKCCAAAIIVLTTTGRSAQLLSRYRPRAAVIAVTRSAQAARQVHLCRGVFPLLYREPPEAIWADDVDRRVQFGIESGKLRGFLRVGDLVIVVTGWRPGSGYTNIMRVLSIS
T2 sequence (P14618 2-531 limits assumed): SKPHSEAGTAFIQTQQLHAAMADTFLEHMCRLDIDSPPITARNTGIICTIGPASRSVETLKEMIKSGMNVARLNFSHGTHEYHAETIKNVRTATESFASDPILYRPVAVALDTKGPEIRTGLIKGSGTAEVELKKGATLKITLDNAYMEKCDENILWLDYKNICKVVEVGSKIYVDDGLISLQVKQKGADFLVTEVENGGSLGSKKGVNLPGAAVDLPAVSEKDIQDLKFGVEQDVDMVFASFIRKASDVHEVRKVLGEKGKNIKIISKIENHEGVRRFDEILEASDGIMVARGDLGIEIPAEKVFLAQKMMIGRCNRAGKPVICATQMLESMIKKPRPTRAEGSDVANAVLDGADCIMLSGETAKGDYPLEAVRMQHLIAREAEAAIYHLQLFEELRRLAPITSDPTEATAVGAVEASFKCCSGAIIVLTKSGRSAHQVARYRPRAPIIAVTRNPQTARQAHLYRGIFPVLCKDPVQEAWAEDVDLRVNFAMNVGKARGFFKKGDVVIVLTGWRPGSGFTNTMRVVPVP

On to `COc1ccc(Cn2ncc3cc([S@@](=N)(=O)c4ccc5c(c4)CCO5)ccc3c2=O)cn1` (single isomer, unassigned) [Example 128], for which the results for the concentration giving a half-maximal response (EC50) on recombinant human PKLR and at recombinant human PKM2 were 7.2 nM and 34.5 nM, respectively. The Emax on recombinant human PKLR (setting [1]) came out at 132%; on recombinant human PKM2, 80.8%.

As to `COc1ccc([S@@](=N)(=O)c2ccc3c(=O)n(Cc4ccc(OC)nc4)ncc3c2)cc1` (single isomer, unassigned) [Example 138], the EC50 at recombinant human PKLR came to 14 nM; on recombinant human PKM2, 85.6 nM. Further, the figures for the maximum response (Emax) on recombinant human PKLR (setting [1]) and at recombinant human PKM2 were 133% and 91.2%, respectively.

With `COc1ccc([S@@](=N)(=O)c2ccc3c(=O)n(Cc4ccc(OC)nc4)ncc3c2)cc1` (single isomer, unassigned) [Example 191], the EC50 on recombinant human PKLR was 14 nM. In addition, the “hPKLR Emax (%)” value on recombinant human PKLR (setting [1]) stood at 133%. For the same compound, on recombinant human PKM2, the “hPKM2 Emax” value was 91.2% and the 50% effective concentration (EC50) was 85.6 nM.

`COc1ccc([S@](=N)(=O)c2ccc3c(=O)n(Cc4ccc(OC)nc4)ncc3c2)cc1` (single isomer, unassigned) [Example 192]: on recombinant human PKLR, the EC50 amounted to 241 nM. The Emax at recombinant human PKLR (setting [1]) came out at 129%. Also, on recombinant human PKM2, the “hPKM2 Emax” value was found to be 59.1% and the EC50 is 106 nM.

In the case of `COc1ccc(S(=O)(=O)c2ccc3c(=O)n(Cc4cccn(CCO)c4=O)ncc3c2)cc1` [Example 5, 2-((1-(2-hydroxyethyl)-2-oxo-1,2-dihydropyridin-3-yl)methyl)-6-(4-methoxyphenylsulfonyl)phthalazin-1(2H)-one], the values for the EC50 on recombinant human PKLR and on recombinant human PKM2 were 19.3 nM and 60.7 nM, respectively. The maximum response (Emax) was found to be 111% on recombinant human PKLR (setting [1]) and 102% at recombinant human PKM2.

On to `O=c1c2ccc(S(=O)(=O)c3ccccc3)cc2cnn1Cc1n[nH]cc1F` [Example 110, 2-((4-fluoro-1H-pyrazol-3-yl)methyl)-6-(phenylsulfonyl)phthalazin-1(2H)-one], for which the EC50 is 29.6 nM on recombinant human PKLR and 68.6 nM on recombinant human PKM2. Also, the Emax at recombinant human PKLR (setting [1]) amounted to 118%; at recombinant human PKM2, 119%.

With `COc1ccc(S(=O)(=O)c2ccc3c(=O)n(Cc4ncccc4O)ncc3c2)cc1` [Example 113, 2-((3-hydroxypyridin-2-yl)methyl)-6-(4-methoxyphenylsulfonyl)phthalazin-1(2H)-one], the EC50 at recombinant human PKLR came to 9.64 nM; on recombinant human PKM2, 163 nM. In addition, the maximum response (Emax) is 118% at recombinant human PKLR (setting [1]) and 133% on recombinant human PKM2.

For `COc1ccc(F)c(Cn2ncc3cc(S(=O)(=O)c4cc[nH]n4)ccc3c2=O)n1` [Example 329], at recombinant human PKM2, the Emax was determined as 98.5% and the EC50 stood at 232 nM.

For the compound `Cn1cc(S(=O)(=O)c2ccc3c(=O)n(Cc4ccc5occc5n4)ncc3c2)cn1` [Example 330], at recombinant human PKM2, the Emax came out at 108% and the EC50 worked out at 20.6 nM.

Regarding `Cc1cc(Cn2ncc3cc(S(=O)(=O)c4cnn(C)c4)ncc3c2=O)n[nH]1` [Example 331], at recombinant human PKM2, the Emax worked out at 93.3% and the EC50 was 167 nM.

On to `Cc1[nH]nc(Cn2ncc3cc(S(=O)(=O)c4cc[nH]n4)ccc3c2=O)c1Cl` [Example 332], for which the EC50 at recombinant human PKM2 was found to be 42.9 nM.

For the compound `COCCn1cc(S(=O)(=O)c2ccc3c(=O)n(Cc4ccc5c(n4)CCO5)ncc3c2)cn1` [Example 333], at recombinant human PKM2, the maximal response (Emax) was determined as 101% and the EC50 was determined as 31.8 nM.

Regarding `O=c1c2ccc(S(=O)(=O)c3cnn(C4COC4)c3)cc2cnn1Cc1ccc2c(n1)CCO2` [Example 334], on recombinant human PKM2, the Emax amounted to 96.8% and the EC50 was 23.3 nM.

Turning to `O=c1c2ccc(S(=O)(=O)c3cc[nH]n3)cc2cnn1Cc1ccc2occc2n1` [Example 335], at recombinant human PKM2, the Emax was 113% and the EC50 worked out at 14.2 nM.

Take `Cn1ccc(S(=O)(=O)c2ccc3c(=O)n(Cc4ccc5occc5n4)ncc3c2)n1` [Example 336]: on recombinant human PKM2, the maximum response (Emax) is 106% and the concentration giving a half-maximal response (EC50) amounted to 28.5 nM.

`Cc1[nH]nc(Cn2ncc3cc(S(=O)(=O)c4ccn(C)n4)ccc3c2=O)c1Cl` [Example 337]: on recombinant human PKM2, the Emax turned out to be 95.9% and the 50% effective concentration (EC50) was 85.5 nM.

`Cc1c(Cl)c(Cn2ncc3cc(S(=O)(=O)c4cn[nH]c4)ccc3c2=O)nn1C` [Example 338]: at recombinant human PKM2, the maximal effect (Emax) amounted to 96.4% and the EC50 is 24.4 nM.

Turning to `O=c1c2ccc(S(=O)(=O)c3cc[nH]n3)cc2cnn1Cc1ccn(C2CC2)n1` [Example 339], on recombinant human PKM2, the maximal effect (Emax) worked out at 110% and the concentration giving a half-maximal response (EC50) worked out at 67.8 nM.

In the case of `O=c1c2ccc(S(=O)(=O)c3cnn(C(F)F)c3)cc2cnn1Cc1ccc2c(n1)CCO2` [Example 340], on recombinant human PKM2, the maximum response (Emax) stood at 111% and the EC50 was found to be 29.3 nM.

Take `N=S(=O)(c1cn[nH]c1)c1ccc2c(=O)n(Cc3ccc4c(n3)CCO4)ncc2c1` (centres unmarked) [Example 341]: at recombinant human PKM2, the Emax is 107% and the 50% effective concentration (EC50) worked out at 109 nM.

As for `Cc1nc(Cn2ncc3cc(S(=O)(=O)c4cn[nH]c4)ccc3c2=O)c(F)cc1F` [Example 342], at recombinant human PKM2, the maximum response (Emax) is 104% and the half-maximal effective concentration (EC50) amounted to 84.4 nM.

Take `Cc1cc(Cn2ncc3cc(S(=O)(=O)c4cnn(C(F)F)c4)ncc3c2=O)n[nH]1` [Example 343]: at recombinant human PKM2, the Emax amounted to 98.2% and the 50% effective concentration (EC50) is 97.6 nM.

Consider `O=c1c2ccc(S(=O)(=O)c3cn[nH]c3)cc2cnn1Cc1ccc2c(n1)OCCO2` [Example 344], for which, on recombinant human PKM2, the maximal effect (Emax) was determined as 107% and the EC50 stood at 31.5 nM.

On to `Cc1cc2nc(Cn3ncc4cc(S(=O)(=O)c5cn[nH]c5)ccc4c3=O)ccc2o1` [Example 345], for which, at recombinant human PKM2, the Emax is 113% and the EC50 stood at 11.4 nM.

In the case of `O=c1c2ccc(S(=O)(=O)c3csc(C4CC4)n3)cc2cnn1Cc1cc[nH]n1` [Example 346], at recombinant human PKM2, the Emax is 96.7% and the half-maximal effective concentration (EC50) was determined as 42.3 nM.

For the compound `O=c1c2cnc(S(=O)(=O)c3cn[nH]c3)cc2cnn1Cc1ccc2c(n1)CCO2` [Example 347], on recombinant human PKM2, the Emax amounted to 104% and the EC50 turned out to be 24.5 nM.

In the case of `Cc1[nH]nc(Cn2ncc3cc(S(=O)(=O)c4cnn(C)c4)ccc3c2=O)c1C` [Example 348], at recombinant human PKM2, the maximal effect (Emax) came out at 94.3% and the EC50 is 51.6 nM.

As for `Cc1[nH]nc(Cn2ncc3cc(S(=O)(=O)c4cnn(C(F)F)c4)ccc3c2=O)c1Cl` [Example 349], on recombinant human PKM2, the maximum response (Emax) turned out to be 92.5% and the half-maximal effective concentration (EC50) was determined as 45.3 nM.

With `COC(C)c1nc(S(=O)(=O)c2ccc3c(=O)n(Cc4ccc5c(n4)CCO5)ncc3c2)cs1` (centres unmarked) [Example 350], on recombinant human PKM2, the maximal effect (Emax) turned out to be 94.9% and the EC50 turned out to be 36.7 nM.

Take `COC(C)c1nc(S(=O)(=O)c2ccc3c(=O)n(Cc4cc[nH]n4)ncc3c2)cs1` (centres unmarked) [Example 351]: at recombinant human PKM2, the Emax came to 103% and the 50% effective concentration (EC50) is 93.9 nM.

As to `COC(C)c1nc(S(=O)(=O)c2ccc3c(=O)n(Cc4ccc5occc5n4)ncc3c2)cs1` (centres unmarked) [Example 352], at recombinant human PKM2, the maximal response (Emax) was 117% and the EC50 came to 27.5 nM.

Turning to `COC(C)c1nc(S(=O)(=O)c2ccc3c(=O)n(Cc4nc(C)c(C)cc4F)ncc3c2)cs1` (centres unmarked) [Example 353], at recombinant human PKM2, the Emax worked out at 105% and the 50% effective concentration (EC50) amounted to 98.8 nM.

Turning to `O=c1c2ccc(S(=O)(=O)c3cn[nH]c3)cc2cnn1Cc1ccc2c(n1)NCCO2` [Example 354], on recombinant human PKM2, the Emax turned out to be 106% and the concentration for a half-maximal effect (EC50) was 23.3 nM.

Take `Cc1c(Cn2ncc3cc(S(=O)(=O)c4cnn(C)c4)ccc3c2=O)nn2c1OCC2` [Example 355]: on recombinant human PKM2, the Emax was determined as 101% and the half-maximal effective concentration (EC50) came out at 39.4 nM.

Turning to `COC(C)c1nc(S(=O)(=O)c2ccc3c(=O)n(Cc4cc5n(n4)CCO5)ncc3c2)cs1` (centres unmarked) [Example 356], at recombinant human PKM2, the Emax was 95.5% and the EC50 came out at 53 nM.

`Cc1nc(S(=O)(=O)c2ccc3c(=O)n(Cc4cc5n(n4)CCO5)ncc3c2)cs1` [Example 357]: on recombinant human PKM2, the Emax amounted to 100% and the EC50 worked out at 77.1 nM.

For `Cc1cc(Cn2ncc3cc(S(=O)(=O)c4csc(C)n4)ccc3c2=O)n[nH]1` [Example 358], on recombinant human PKM2, the Emax was 98.4% and the 50% effective concentration (EC50) was 77 nM.

Turning to `Cc1cc(S(=O)(=O)c2ccc3c(=O)n(Cc4ccc5c(n4)CCO5)ncc3c2)n[nH]1` [Example 359], at recombinant human PKM2, the maximum response (Emax) came out at 112% and the half-maximal effective concentration (EC50) is 24.2 nM.

As to `COCCn1ccc(S(=O)(=O)c2ccc3c(=O)n(Cc4ccc5c(n4)CCO5)ncc3c2)n1` [Example 360], on recombinant human PKM2, the maximum response (Emax) was 113% and the EC50 was 71.4 nM.

Regarding `O=c1c2ccc(S(=O)(=O)c3cnn(CC(F)(F)F)c3)cc2cnn1Cc1cc[nH]n1` [Example 361], at recombinant human PKM2, the maximum response (Emax) was found to be 93.2% and the EC50 turned out to be 79.4 nM.

Turning to `Cc1c(Cn2ncc3cc(S(=O)(=O)c4cn[nH]c4)ccc3c2=O)nn2c1OCC2` [Example 362], on recombinant human PKM2, the Emax came to 105% and the EC50 stood at 42 nM.

As usually defined, the EC50 is the concentration giving half of the maximal effect. By Emax is commonly meant the maximal effect, on the per cent scale that the assay sets.
